Experimental data as given in PMC7695847, “The structural basis of promiscuity in small multidrug resistance transporters” (Nature Communications, 2020).

Assays:
Gdx-Clo = system: T1, Gdx-Clo; test: […]-Gdm+ uptake and SSM electrophysiology, proteoliposomes; type: biochemical, Clostridiales bacterium oral taxon 876; conditions: 20 µM 14C-Gdm+ or 1 mM (SSM); pH 7.5; labelled compound
T1 construct: gene HMPREF1982_00479; full-length; C-terminal His6 tag with LysC site, tag cleaved by LysC; expressed in E. coli C41(DE3); antiparallel homodimer
T1 sequence (U2EQ00 entry or part of it): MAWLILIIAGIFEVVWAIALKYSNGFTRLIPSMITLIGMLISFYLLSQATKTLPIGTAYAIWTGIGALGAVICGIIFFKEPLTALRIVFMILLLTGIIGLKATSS

EmrE [1] = molecular target: T2, EmrE (Escherichia coli, UniProt P23895); test: […]-methyl viologen uptake into proteoliposomes; type: biochemical; conditions: 7 µM 14C-methyl viologen; pH 7.5; labelled compound
T2 construct: full-length; N-terminal His6 tag with thrombin site; expressed in E. coli; homodimer; reconstituted in proteoliposomes
T2 sequence (P23895 whole entry): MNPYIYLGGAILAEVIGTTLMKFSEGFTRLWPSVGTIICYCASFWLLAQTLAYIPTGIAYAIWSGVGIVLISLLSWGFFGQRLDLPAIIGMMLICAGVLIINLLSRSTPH

EmrE [2] = molecular target: T2, EmrE; test: SSM electrophysiology, proteoliposomes; type: biochemical; conditions: 1 mM; pH 7.5; reference compound for normalisation

N=C(N)N [Gdm^+]
14C-Gdm+ uptake and SSM electrophysiology, proteoliposomes (Gdx-Clo): Gdx-Clo transports Gdm^+, but not methyl viologen

C[n+]1ccc(-c2cc[n+](C)cc2)cc1 [methyl viologen]
14C-methyl viologen uptake into proteoliposomes (EmrE [1]): EmrE transports methyl viologen, but not Gdm^+

N=C(N)Nc1ccccc1 [phenylGdm^+]
SSM electrophysiology, proteoliposomes (EmrE [2]): methyl-, ethyl-, and phenylGdm^+ evoked increasingly larger currents
